{"source": "patent US20110002995A1", "about": "“PHARMACEUTICAL COMPOSITION FOR THE TREATMENT AND PREVENTION OF CARDIAC DISEASE” (MAZENCE INC., priority 2007, published 2011)", "key": {"[1]": {"tested_on": "TAC-induced heart hypertrophy", "assay": "Inhibitory effect on heart hypertrophy, TAC model (Experimental Example 1)", "format": "in vivo, C57BL/6J male mice", "experimental": "(§1) 8-week-old C57BL/6J male mice (n=40, 20-23 g, SLC, Japan) were purchased and subjected to transverse aortic constriction (TAC).\n(§2) The thorax was incised and the thymus was removed.\n(§3) 5 weeks after the operation of TAC for the heart failure model, a difference of a fractional shortening (F.S) value (%) with the control group was confirmed using echocardiogram, and the degree of heart failure induction and therapeutic effects were then determined.\n(§4) Further, left ventricular end-diastolic and systolic diameters were measured according to the standard method of the American Society for Echocardiography. Fractional shortening (%) which is an indicator of the ventricular contractility is calculated according to the following equation.\n(§5) F.S=(left ventricular end-diastolic diameter)−(left ventricular end-systolic diameter)/left ventricular end-diastolic diameter\n(§6) Among compounds of Formula 1, inhibitory effects of 7,8-dihydro-2,2-dimethyl-2H-naphtho(2,3-b)dihydropyran-7,8-dione (hereinafter, referred to as “MB660”) on heart hypertrophy and heart failure were examined.\n(§7) 2 days after TAC treatment, animals were given test samples. Induction of heart hypertrophy was carried out over 2 weeks after TAC treatment. Induction of heart failure was carried out over 5 weeks after TAC treatment."}, "[2]": {"tested_on": "TAC-induced heart failure", "assay": "Inhibitory effect on heart failure, TAC model (Experimental Example 1)", "format": "in vivo, C57BL/6J male mice", "experimental": "as §1, §2, §3, §4, §5, §6, §7"}, "[3]": {"tested_on": "TAC-induced heart hypertrophy", "assay": "Reversal of heart hypertrophy, TAC model (Experimental Example 2)", "format": "in vivo, C57BL/6J male mice", "settings": "150 mg/kg for 4 weeks, starting 2 weeks after TAC", "experimental": "as §1, §2, §3, §4, §5\n(§8) In order to measure effects of MB660 on the reversal of heart hypertrophy and heart failure, the experiment was carried out as follows.\n(§9) After induction of heart hypertrophy (2 weeks after TAC treatment) and heart failure (5 weeks after TAC treatment), animals were given test samples for 4 weeks."}, "[4]": {"tested_on": "TAC-induced heart failure", "assay": "Reversal of heart failure, TAC model (Experimental Example 2)", "format": "in vivo, C57BL/6J male mice", "settings": "150 mg/kg for 4 weeks, starting 5 weeks after TAC", "experimental": "as §1, §2, §3, §4, §5, §8, §9"}, "[5]": {"tested_on": "TAC-induced heart hypertrophy", "assay": "Changes of heart size in heart hypertrophy model (Experimental Example 4)", "format": "in vivo, C57BL/6J male mice", "settings": "150 mg/kg orally for two weeks from one week after TAC, heart excised three weeks after TAC, FIG. 15", "excerpt": "as §2\nIn order to examine changes of heart size in response to the administration of MB660, experimental animals were divided into four groups as given in Table 4 below:\nOne week after TAC treatment, animals were orally given MB660 for two weeks. Three weeks after TAC treatment, animals were sacrificed and the heart was excised, followed by size examination."}, "[6]": {"tested_on": "cardiomyocytic mitochondria, TAC-induced heart hypertrophy", "assay": "Mitochondrial changes of cardiomyocytes in heart hypertrophy model (Experimental Example 5)", "format": "in vivo, C57BL/6J mice", "settings": "orally for 4 weeks after induction of heart hypertrophy (2 weeks after TAC), transmission electron microscope, FIG. 16", "excerpt": "(§10) Animals were orally given test samples for 4 weeks after induction of heart hypertrophy (2 weeks after TAC treatment) and heart failure (5 weeks after TAC treatment). The left ventricular myocardial tissues of animals were fixed in 2.5% glutaraldehyde to prepare tissue sections, and mitochondrial morphological changes were examined under a transmission electron microscope.\n(§11) In C57BL/6J mice with TAC-induced heart hypertrophy and heart failure, alterations in cardiomyocytic mitochondria in response to the administration of MB660 were observed."}, "[7]": {"tested_on": "cardiomyocytic mitochondria, TAC-induced heart failure", "assay": "Mitochondrial changes of cardiomyocytes in heart failure model (Experimental Example 5)", "format": "in vivo, C57BL/6J mice", "settings": "orally for 4 weeks after induction of heart failure (5 weeks after TAC), transmission electron microscope, FIG. 17", "excerpt": "as §10, §11"}, "[8]": {"tested_on": "TAC-induced heart hypertrophy", "settings": "FIG. 14", "source_text": "For the operation of TAC, C57BL/6 male mice were anesthetized with an intraperitoneal injection of a liquid anesthetic (ketamine:xylazine=20:1, kg/ml), and a 22-gauge IV catheter needle was placed into the trachea, followed by connection with a ventilator (Harvard Apparatus) for artificial forcible respiration. The thorax was incised and the thymus was removed. Following the removal of the thymus, the transverse aorta between the right subclavian artery and the left subclavian artery was banded (7-0, silk) with an overlaying blunted 27-gauge needle, and then the needle was quickly removed to create a defined constriction. The thorax was sutured with (5-0) silk to complete the surgery, and respiration of animals was then confirmed.\nA ratio of heart weight (HW) to body weight (BW) (HW/BW ratio) and a ratio of heart weight (HW) to tibia length (HW/TL ratio) were respectively estimated using echocardiogram.\n2 days after the operation of TAC, animals were orally given test samples for 2 weeks."}}}
{"smiles": "CC1(C)CCc2cc3c(cc2O1)=CC(=O)C(=O)C=3", "note": "[MB660, 7,8-dihydro-2,2-dimethyl-2H-naphtho(2,3-b)dihydropyran-7,8-dione]", "values": [{"measurement": "HW/BW ratio vs non-MB660 treated TAC group", "setting": "[1]; TAC MB(+), 150 mg/kg, given from 2 days after TAC, hypertrophy induced over 2 weeks, FIG. 1", "result": "significantly low value of heart hypertrophy"}, {"measurement": "HW/TL ratio vs non-MB660 treated TAC group", "setting": "[1]; TAC MB(+), 150 mg/kg, given from 2 days after TAC, hypertrophy induced over 2 weeks, FIG. 2", "result": "significantly low value of heart hypertrophy"}, {"measurement": "fractional shortening vs non-MB660 treated group", "setting": "[1]; echocardiogram, heart hypertrophy-induced model, FIG. 3", "result": "significant increase"}, {"measurement": "HW/BW ratio vs non-MB660 treated group", "setting": "[2]; TAC MB(+), 150 mg/kg, given from 2 days after TAC, heart failure induced over 5 weeks, FIG. 4", "result": "significantly low values"}, {"measurement": "HW/TL ratio vs non-MB660 treated group", "setting": "[2]; TAC MB(+), 150 mg/kg, given from 2 days after TAC, heart failure induced over 5 weeks, FIG. 5", "result": "significantly low values"}, {"measurement": "fractional shortening vs non-MB660 treated group", "setting": "[2]; echocardiogram, heart failure-induced model", "result": "significantly increased"}, {"measurement": "HW/BW lower than the non-MB660 treated group", "setting": "[3]; FIG. 7", "result": "≥ 30", "unit": "%"}, {"measurement": "HW/BW value", "setting": "[3]; FIG. 7", "result": 6.23}, {"measurement": "HW/TL lower than the non-MB660 treated group", "setting": "[3]; FIG. 8", "result": "about 25%"}, {"measurement": "HW/TL value", "setting": "[3]; FIG. 8", "result": 7.68}, {"measurement": "fractional shortening vs non-MB660 treated group", "setting": "[3]; FIG. 9", "result": "significant increase"}, {"measurement": "HW/BW ratio vs control group", "setting": "[4]; FIG. 10", "result": "low values"}, {"measurement": "HW/TL ratio vs control group", "setting": "[4]; FIG. 11", "result": "low values"}, {"measurement": "fractional shortening vs control group", "setting": "[4]; FIG. 12", "result": "significant increase"}, {"measurement": "heart size, TAC group vs non-administered TAC control", "setting": "[5]", "result": "significant decrease of the heart size"}, {"measurement": "mitochondrial function/morphology of cardiomyocytes", "setting": "[6]", "result": "returned to the original condition"}, {"measurement": "mitochondrial function/morphology of cardiomyocytes", "setting": "[7]", "result": "returned to the original condition"}, {"measurement": "HW/BW ratio vs control group (TAC)", "setting": "[8]; 30, 60, 100, 150 mg/kg orally for 2 weeks from 2 days after TAC", "result": "significant decrease"}, {"measurement": "HW/BW ratio, dependence on dose", "setting": "[8]; 30 to 150 mg/kg orally for 2 weeks", "result": "generally decreased with an increasing dose"}, {"measurement": "HW/BW ratio at 60 mg compared to the group with 30 mg", "setting": "[8]; orally for 2 weeks", "result": "increased"}]}
